Values quoted from earlier work as cited in the PKSmart pharmacokinetics tables (Seal et al. 2025).

Assay: Lombardo, Berellini, Obach 2018, Drug Metab Dispos 46:1466, doi 10.1124/dmd.118.082966
Conditions: human; for MRT / Vd / clearance / half-life: in vivo, iv; for fraction unbound: plasma

Row | Compound | MRT | Vd | clearance | half-life | fraction unbound
1 | CC(C(O)c1ccc(O)cc1)N1CCC(Cc2ccccc2)CC1 (stereo not given) | 4.9 h | 19 L/kg | 64.6 mL/min/kg | 4.32 h | –
2 | COc1ccc([C@@H]2CNC(=O)C2)cc1OC1CCCC1 | 1.77 h | 0.67 L/kg | 6.3 mL/min/kg | 7 h | 0.11
3 | CCCCC1=NC2(CCCC2)C(=O)N1Cc1ccc(-c2ccccc2-c2nnn[nH]2)cc1 | 6.8 h | 0.94 L/kg | 2.3 mL/min/kg | 14 h | 0.1
4 | CC(=O)C(C#N)C(=O)Nc1ccc(C(F)(F)F)cc1 (stereo not given) | 367 h | 0.16 L/kg | 0.007 mL/min/kg | 350 h | –
5 | CCN[C@@H](C)Cc1cccc(C(F)(F)F)c1 | 18 h | 11 L/kg | 11 mL/min/kg | 14 h | 0.66
6 | NC[C@H]1OB(O)c2c(OCCCO)cccc21 | 9.6 h | 2.37 L/kg | 4.1 mL/min/kg | 11.6 h | –
7 | CN1CCN(c2ncc(-c3cc(Cl)cc(Cl)c3Cl)c(N)n2)CC1 | 12.3 h | 15.3 L/kg | 20.9 mL/min/kg | 11 h | –
8 | COc1ccccc1Oc1c(NS(=O)(=O)c2ccc(C)cn2)nc(-c2ccnc(-c3nnn[nH]3)c2)nc1OCCO | 0.4 h | 0.23 L/kg | 10.5 mL/min/kg | 2.6 h | 0.02
9 | Oc1ccc([C@H]2CNCCc3c2cc(O)c(O)c3Cl)cc1 | 0.2 h | 0.5 L/kg | 41.5 mL/min/kg | 1 h | 0.12
10 | CC(C)=CCN1Cc2cc(Cl)cc3[nH]c(=S)n(c23)C[C@@H]1C | 35.2 h | 22 L/kg | 10.4 mL/min/kg | 26 h | –
11 | Nc1nc(=O)n([C@H]2C[C@H](O)[C@@H](CO)O2)cc1F | 2.98 h | 0.91 L/kg | 5.09 mL/min/kg | 0.78 h | –
12 | COc1ccc(C2(C#N)CCC(C(=O)O)CC2)cc1OC1CCCC1 (stereo not given) | 8.5 h | 0.23 L/kg | 0.5 mL/min/kg | 7.9 h | –
13 | CCC1=C(C)CN(C(=O)NCCc2ccc(S(=O)(=O)NC(=O)N[C@H]3CC[C@H](C)CC3)cc2)C1=O | – | 0.19 L/kg | 0.5 mL/min/kg | 10 h | –
14 | CC[C@@]1(O)C(=O)OCc2c1cc1n(c2=O)Cc2c-1nc1ccc(O)cc1c2[Si](C)(C)C(C)(C)C | 1.3 h | 0.47 L/kg | 6 mL/min/kg | 1.4 h | –
15 | CC(=O)N1CCN([C@H]2CCN(C(=O)N(C)[C@H](C)c3cc(C(F)(F)F)cc(C(F)(F)F)c3)[C@@H](c3ccc(F)cc3C)C2)CC1 | 15 h | 2.77 L/kg | 3.07 mL/min/kg | 15.6 h | 1
16 | Cc1nc2c([nH]1)-c1ccccc1N(C(=O)c1ccc(NC(=O)c3ccccc3-c3ccccc3)cc1)CC2 | 4.2 h | 0.76 L/kg | – | 6.7 h | –

Row | Compound | MRT | Vd | clearance | half-life | fraction unbound
17 | COc1cccc2c1C(=O)c1c(O)c3c(c(O)c1C2=O)C[C@@](O)(C(C)=O)C[C@@H]3O[C@H]1C[C@H](N)[C@H](O)[C@H](C)O1 | 11.2 h | 32 L/kg | 47.6 mL/min/kg | 14.2 h | 0.06
18 | Cn1cc(C(=O)C2CCc3[nH]cnc3C2)c2ccccc21 (stereo not given) | 6.28 h | 2.65 L/kg | 7.03 mL/min/kg | 4.94 h | –
19 | CCC(C)n1ncn(-c2ccc(N3CCN(c4ccc(OCC5COC(Cn6cncn6)(c6ccc(Cl)cc6Cl)O5)cc4)CC3)cc2)c1=O (stereo not given) | – | 7.4 L/kg | 5.1 mL/min/kg | 25 h | –
20 | O=P(NCCCl)(NCCCl)O[C@@H]1O[C@H](CO)[C@@H](O)[C@H](O)[C@H]1O | 2.49 h | 0.24 L/kg | 1.6 mL/min/kg | 2.37 h | 0.71
21 | N#C[C@H]1CC2C[C@H]2N1C(=O)C(N)C12CC3CC(CC(O)(C3)C1)C2 (stereo not given in full) | 4.1 h | 1.8 L/kg | 7.1 mL/min/kg | 7.5 h | 1
22 | CC1(C)S[C@@H]2C(/N=C/N3CCCCCC3)C(=O)N2C1C(=O)O (stereo not given in full) | 1 h | 0.37 L/kg | 6.3 mL/min/kg | 1.1 h | 0.9
23 | CC(NC(CCc1ccccc1)C(=O)O)C(=O)N1Cc2ccccc2CC1C(=O)O (stereo not given) | 2.3 h | 0.13 L/kg | 0.93 mL/min/kg | 2.3 h | –
24 | O=C(O)CO | 2.75 h | 0.67 L/kg | 4.05 mL/min/kg | 2.1 h | 0.84
25 | CSCO[C@H]1C[C@H]2OC[C@@]2(OC(C)=O)[C@H]2[C@H](OC(=O)c3ccccc3)[C@]3(O)C[C@H](OC(=O)C(O)C(NC(=O)c4ccccc4)c4ccccc4)C(C)=C(C(OC(C)=O)C(=O)[C@]12C)C3(C)C (stereo not given in full) | 29 h | 11 L/kg | 6.4 mL/min/kg | 32 h | –
26 | C[C@](N)(Cc1ccc(O)c(O)c1)C(=O)O | 3.3 h | 0.69 L/kg | 3.5 mL/min/kg | 5.9 h | –
27 | CCON=C(C(=O)NC1C(=O)N2C(C(=O)[O-])=C(Sc3nc(-c4cc[n+](C)cc4)cs3)CS[C@H]12)c1nsc(NP(=O)(O)O)n1 (stereo not given in full) | 0.11 h | 0.53 L/kg | 83.6 mL/min/kg | 0.09 h | 0.8
28 | C[C@@H]1C[C@@H]2[C@@H]3CC=C4CC(=O)C=C[C@]4(C)C3=CC[C@]2(C)C1C(=O)CN1CCN(c2cc(N3CCCC3)nc(N3CCCC3)n2)CC1 (stereo not given in full) | 23.2 h | 9.8 L/kg | 7 mL/min/kg | 49.3 h | 0.006
29 | CCCCC[C@H](O)/C=C/[C@@H]1C(CCCCCCC(=O)O)C(=O)C[C@H]1O (stereo not given in full) | 0.9 h | 2.4 L/kg | 45.4 mL/min/kg | 1.9 h | –
30 | CCCn1c(=O)c2[nH]c(C34CCC(CCC(=O)O)(CC3)CC4)nc2n(CCC)c1=O | 11.7 h | 0.76 L/kg | 1.08 mL/min/kg | 16 h | 0.1
31 | CCN1CC(CCN2CCOCC2)C(c2ccccc2)(c2ccccc2)C1=O (stereo not given) | 3.7 h | 1.2 L/kg | 5.3 mL/min/kg | 4.1 h | –
